Data taken from a melting point compilation (Tetko et al.).

First: Fc1ccc2c(Cl)ncnc2c1
Second: Clc1ncnc2ccc(Br)cc12
The melting point of the first is lower: 90 to 92 °C for the first, 166 to 168 °C for the second.

Compared with Cc1csc(CC(N)=S)n1, Cn1c(S)nc2ccsc2c1=O is higher in melting point: 126 to 128 °C for the first, 313 to 315 °C for the second.

First: OCc1cccc(OCC(F)(F)F)c1
Second: O=Cc1cccc(OCCC(=O)O)c1
The melting point of the first is lower: 30 to 32 °C for the first, 98 to 100 °C for the second.

Compared with O=C(CCl)N1N=C(c2cc3ccccc3o2)CC1c1ccco1 (stereo not drawn), O=C(O)CCc1nc2ccccc2o1 is lower in melting point: 165 to 167 °C for the first, 110 to 112 °C for the second.

Compared with CCOC(=O)c1c(N=C=S)sc(C)c1C, CCc1c(C)sc2[nH]c(COCC(=O)O)nc(=O)c12 is higher in melting point: 67 to 69 °C for the first, 193 to 195 °C for the second.

Compared with CC1(C)OC(=O)C(C(=O)C2CCCC2)C(=O)O1, CN(c1cc(C(=O)O)ccn1)C1CCCC1 is higher in melting point: 63 to 65 °C for the first, 179 to 181 °C for the second.

First: O=c1nc(CCl)[nH][nH]1
Second: O=[N+]([O-])c1ccc(CCl)c(Cl)c1
The melting point of the first is higher: 179 to 181 °C for the first, 50 to 52 °C for the second.

Compared with NNc1ccc(-n2cccn2)nn1, Cc1cnn(-c2ccc(C(N)=O)cc2N)c1 is lower in melting point: 194 to 196 °C for the first, 164 to 166 °C for the second.

First: Cc1cc(C(=O)CCl)c(C)n1-c1ccc(C(C)(C)C)cc1
Second: Cc1ccc(C(=O)CCl)cc1C
The melting point of the first is higher: 102 to 104 °C for the first, 51 to 53 °C for the second.

First: O=C1COc2cc(S(=O)(=O)Cl)c(Br)cc2N1
Second: CCNS(=O)(=O)c1ccc(Br)c(C(=O)O)c1
The melting point of the first is higher: 223 to 225 °C for the first, 198 to 200 °C for the second.

First: Cc1ccc2c(C3CCNCC3)c[nH]c2c1
Second: O=C(O)Cc1c[nH]c2cc(F)ccc12
The melting point of the first is higher: 176 to 178 °C for the first, 159 to 161 °C for the second.

Compared with CNS(=O)(=O)c1ccccc1N1CCC(N)CC1, O=C(CCl)NCc1ccccc1S(=O)(=O)N1CCOCC1 is higher in melting point: 119 to 121 °C for the first, 123 to 125 °C for the second.

Compared with O=C(O)c1cnc2c(Br)cccc2c1O, O=C(O)c1coc2ccccc12 is lower in melting point: 276 to 278 °C for the first, 150 to 152 °C for the second.

First: Cc1ccc(C(=O)C(=O)c2ccccc2)cc1C
Second: O=C(O)c1ccc(S(=O)(=O)N2CCCc3ccccc32)cc1
The melting point of the first is lower: 63 to 65 °C for the first, 170 to 172 °C for the second.

First: Nc1cc(Br)ccc1O
Second: CCOC(=O)c1cc2ccc(Br)cc2[nH]1
The melting point of the first is lower: 127 to 129 °C for the first, 187 to 189 °C for the second.

Compared with O=C1C=CC(=O)N1CCc1ccc(F)cc1, O=C(O)c1ccc(Oc2ccc(F)cc2)cc1 is higher in melting point: 79 to 81 °C for the first, 170 to 174 °C for the second.

Compared with O=C(O)C1CC1c1ccc(Cl)cc1Cl (stereo not drawn), CC(Oc1ccc(Cl)cc1Br)C(=O)O (stereo not drawn) is lower in melting point: 157 to 159 °C for the first, 122 to 124 °C for the second.

First: Cc1ccc(Cc2cnc(N)s2)cc1F
Second: Nc1ncc(Cc2cccc(Cl)c2)s1
The melting point of the first is higher: 139 to 141 °C for the first, 99 to 101 °C for the second.

First: CC(C)CCNC(=O)C1CSCN1 (stereo not drawn)
Second: COC(=O)C(CC(C)C)NC(N)=O (stereo not drawn)
The melting point of the first is higher: 162 to 164 °C for the first, 68 to 70 °C for the second.

Compared with CC(C)c1ccc(O)c(C(=O)O)c1, COc1ccc(SCCC(=O)O)cc1OC is lower in melting point: 123 to 125 °C for the first, 72 to 74 °C for the second.

First: COC(=O)c1ccc(NS(C)(=O)=O)cc1
Second: CS(=O)(=O)c1ccc(NN)cc1
The melting point of the first is higher: 147 to 149 °C for the first, 132 to 134 °C for the second.

First: Nc1nc2c(s1)CCCCCC2
Second: O=C(c1ccc2c(c1)CCCN2)N1CCOCC1
The melting point of the first is higher: 202 to 204 °C for the first, 142 to 144 °C for the second.

Compared with Cc1ccc(CNc2ccc3[nH]c(=O)[nH]c3c2)cc1, Cc1ccc(C(=O)Nc2ccc(O)cc2)cc1 is lower in melting point: 271 to 273 °C for the first, 208 to 210 °C for the second.

First: Cn1cc(OCc2ccccc2)c(=O)cc1CO
Second: Cc1c(CC(=O)O)nnn1-c1ccccc1
The melting point of the first is higher: 221 to 223 °C for the first, 169 to 171 °C for the second.

First: Nc1ccccc1C(=O)NC1CC1
Second: O=C(NC1CC1)c1ccc(Cl)c([N+](=O)[O-])c1
The melting point of the first is higher: 135 to 136 °C for the first, 130 to 132 °C for the second.

First: CCCc1[nH]c2ccccc2c1CC
Second: CCc1nc2ccccc2n1CC#N
The melting point of the first is lower: 43 to 45 °C for the first, 104 to 106 °C for the second.

First: N#Cc1ccc(OCC(=O)O)cc1
Second: N#Cc1ccc(N=C=O)cc1
The melting point of the first is higher: 177 to 179 °C for the first, 101 to 104 °C for the second.

First: CCn1c(S)nc2cc(S(=O)(=O)N3CCOCC3)ccc21
Second: CCn1c(C=O)nc2ccccc21
The melting point of the first is higher: 227 to 229 °C for the first, 49 to 51 °C for the second.

First: COc1ccc2nc(Cl)ccc2c1S(=O)(=O)Cl
Second: O=S(=O)(Nc1ccc(F)c(F)c1)c1ccc(Cl)nc1
The melting point of the first is lower: 136 to 138 °C for the first, 159 to 161 °C for the second.

First: COC(=O)C(=O)CC(=O)c1c(F)cccc1F
Second: Cc1occc1C(=O)NCC(=O)O
The melting point of the first is lower: 88 to 90 °C for the first, 143 to 145 °C for the second.

Compared with COCCCC(N)=NO, CC(C)(C)OC(=O)NC(C(N)=NO)C1CC1 (stereo not drawn) is higher in melting point: 84 to 86 °C for the first, 147 to 149 °C for the second.

First: CC1CCC(Cn2c(N)cc(=O)[nH]c2=O)CC1 (stereo not drawn)
Second: Cc1oc(C(=O)O)cc1S(=O)(=O)N1CCCC1
The melting point of the first is higher: 239 to 241 °C for the first, 219 to 221 °C for the second.

Compared with O=C(O)c1ccc(SC2CC2)cc1, N#Cc1ccc(S(=O)(=O)N2CCC(C(=O)O)CC2)cc1 is higher in melting point: 156 to 158 °C for the first, 175 to 177 °C for the second.

First: O=Cc1ccc(-c2nc3ccccc3s2)o1
Second: Nc1ccc(-c2nc3ccccc3s2)cc1N
The melting point of the first is higher: 177 to 179 °C for the first, 165 to 169 °C for the second.

Compared with ClCc1ccc(-c2nc3cc(Cl)ccc3s2)cc1, COc1ccc(CNc2nccs2)cc1 is lower in melting point: 164 to 166 °C for the first, 147 to 149 °C for the second.

First: CC1(c2cccs2)NC(=O)NC1=O (stereo not drawn)
Second: CNc1cccc([N+](=O)[O-])c1
The melting point of the first is higher: 137 to 139 °C for the first, 65 to 67 °C for the second.

First: Cc1c(C(=O)O)nnn1-c1ccccc1
Second: CC(=O)c1nnn(-c2cccc3ncccc23)c1C
The melting point of the first is lower: 110 to 112 °C for the first, 116 to 118 °C for the second.

First: Cc1cc(Cl)cc2cc(C#N)oc12
Second: N#CCc1cccnc1Cl
The melting point of the first is higher: 113 to 115 °C for the first, 80 to 82 °C for the second.

Compared with CC(C)(C)OC(=O)NC(C(N)=NO)c1ccccc1 (stereo not drawn), O=C(O)CCC(NC(=O)c1ccccc1)C(=O)O (stereo not drawn) is lower in melting point: 177 to 179 °C for the first, 133 to 135 °C for the second.

Compared with O=C(O)C(Nc1ccccc1)c1ccccc1F (stereo not drawn), COc1ccc(C(N)c2ccccc2OC)cc1 (stereo not drawn) is lower in melting point: 115 to 117 °C for the first, 58 to 60 °C for the second.

First: O=C1NC(=O)N(C2CCS(=O)(=O)C2)C1=O (stereo not drawn)
Second: O=C(O)CCN1C(=O)NC2(CCCCC2)C1=O
The melting point of the first is higher: 244 to 246 °C for the first, 100 to 102 °C for the second.

Compared with CC(NC(=O)CC(F)(F)F)C(=O)O (stereo not drawn), Cc1nn(C)c(C)c1S(=O)(=O)NC(C)C(=O)O (stereo not drawn) is higher in melting point: 105 to 107 °C for the first, 197 to 199 °C for the second.

First: COc1ccc(C2CCN2S(=O)(=O)c2ccc(C)cc2)cc1 (stereo not drawn)
Second: CCCCc1ccc(NS(=O)(=O)c2ccc(C)c(C(=O)O)c2)cc1
The melting point of the first is lower: 102 to 104 °C for the first, 192 to 194 °C for the second.

Compared with Nc1ccc(N2CCCCC2)c(S(=O)(=O)Nc2ccc(Cl)cc2)c1, CS(=O)(=O)N1CCCc2cc(C(=O)O)ccc21 is higher in melting point: 145 to 147 °C for the first, 218 to 220 °C for the second.

First: CN(C)C(=O)C1CNc2ccccc2O1 (stereo not drawn)
Second: CCC(=O)c1ccc(N(C)C)cc1
The melting point of the first is lower: 90 to 92 °C for the first, 104 to 106 °C for the second.

First: CCCC(=O)N1CCCC1C(=O)O (stereo not drawn)
Second: CCN1CCCC1CNC(=O)C1CCNCC1 (stereo not drawn)
The melting point of the first is lower: 115 to 117 °C for the first, 191 to 194 °C for the second.

First: CC(C)(C)C1CCc2sc(C(=O)O)cc2C1 (stereo not drawn)
Second: O=C1CC(C(=O)O)CN1 (stereo not drawn)
The melting point of the first is higher: 169 to 171 °C for the first, 129 to 131 °C for the second.

First: NC(=S)C1CCCO1 (stereo not drawn)
Second: CCc1nnc(S)n1N
The melting point of the first is lower: 80 to 82 °C for the first, 143 to 145 °C for the second.

Compared with Cc1cc(OCC(=O)O)no1, Oc1ccc2cn[nH]c2c1 is higher in melting point: 123 to 125 °C for the first, 189 to 191 °C for the second.

First: Nc1cncc(Br)c1
Second: COc1ccc(N)cc1-n1nnnc1C
The melting point of the first is lower: 65 to 69 °C for the first, 130 to 132 °C for the second.

Compared with COc1ccc(Br)cc1Cc1nnn[nH]1, CN(C)S(=O)(=O)c1cn[nH]c1 is lower in melting point: 180 to 182 °C for the first, 132 to 134 °C for the second.

Compound NS(=O)(=O)c1ccc(CNCC(F)(F)F)cc1 has a melting point of 129 to 131 °C.
